Laboratory results published in patent US4038388A, “Antimicrobial compositions” (Paterson Zochonis & Company Limited, priority 1976, dated 1977).

Tests used:
Assay in all cases: Antibiotic Sensitivity
Assay type in all cases: cell-based
Pr. rettgeri 7475 = tested on: Pr. rettgeri 7475; note: key: R: resistant; S: sensitive; SS: slightly sensitive
Coliform 608 = tested on: Coliform 608; note: key: R: resistant; S: sensitive; SS: slightly sensitive
Staph. pyogenes = tested on: Staph. pyogenes; note: key: R: resistant; S: sensitive; SS: slightly sensitive
E. coli 9395 = tested on: E. coli 9395; note: key: R: resistant; S: sensitive; SS: slightly sensitive
Coliform 578 = tested on: Coliform 578; note: key: R: resistant; S: sensitive; SS: slightly sensitive
Strep. faecalia 559 = tested on: Strep. faecalia 559; note: key: R: resistant; S: sensitive; SS: slightly sensitive
Kleb. aerogenes 22352 = tested on: Kleb. aerogenes 22352; note: key: R: resistant; S: sensitive; SS: slightly sensitive
E. coli 559 = tested on: E. coli 559; note: key: R: resistant; S: sensitive; SS: slightly sensitive
Staph. aureus 20477 = tested on: Staph. aureus 20477; note: key: R: resistant; S: sensitive; SS: slightly sensitive
E. coli 566 = tested on: E. coli 566; note: key: R: resistant; S: sensitive; SS: slightly sensitive
Staph. albus 474 = tested on: Staph. albus 474; note: key: R: resistant; S: sensitive; SS: slightly sensitive
Staph. albus 473 = tested on: Staph. albus 473; note: key: R: resistant; S: sensitive; SS: slightly sensitive
Pr. vulgaris 4635 = tested on: Pr. vulgaris 4635; note: key: R: resistant; S: sensitive; SS: slightly sensitive
E. coli 026 = tested on: E. coli 026; note: key: R: resistant; S: sensitive; SS: slightly sensitive
Staph. aureus 590 = tested on: Staph. aureus 590; note: key: R: resistant; S: sensitive; SS: slightly sensitive
Ps. aeruginosa 1999 = tested on: Ps. aeruginosa 1999; note: key: R: resistant; S: sensitive; SS: slightly sensitive
Strep. faecalis 20190 = tested on: Strep. faecalis 20190; note: key: R: resistant; S: sensitive; SS: slightly sensitive
Staph. albus 479 = tested on: Staph. albus 479; note: key: R: resistant; S: sensitive; SS: slightly sensitive
Kleb, acrogenes 8172 = tested on: Kleb, acrogenes 8172; note: key: R: resistant; S: sensitive; SS: slightly sensitive
Candida albicans = tested on: Candida albicans; note: key: R: resistant; S: sensitive; SS: slightly sensitive
Ps. multivorans BS = tested on: Ps. multivorans BS; note: key: R: resistant; S: sensitive; SS: slightly sensitive
Pr. miribilis 25702 = tested on: Pr. miribilis 25702; note: key: R: resistant; S: sensitive; SS: slightly sensitive
Ps. multivorans MB = tested on: Ps. multivorans MB; note: key: R: resistant; S: sensitive; SS: slightly sensitive
Staph. aureus 7447 = tested on: Staph. aureus 7447; note: key: R: resistant; S: sensitive; SS: slightly sensitive
E. coli 604 = tested on: E. coli 604; note: key: R: resistant; S: sensitive; SS: slightly sensitive
Coliform 518 = tested on: Coliform 518; note: key: R: resistant; S: sensitive; SS: slightly sensitive
Serratia marcescens = tested on: Serratia marcescens; note: key: R: resistant; S: sensitive; SS: slightly sensitive
Ps. aeruginosa 5267 = tested on: Ps. aeruginosa 5267; note: key: R: resistant; S: sensitive; SS: slightly sensitive
Staph. albus 476 = tested on: Staph. albus 476; note: key: R: resistant; S: sensitive; SS: slightly sensitive
Proteus 20029 = tested on: Proteus 20029
Proteus 371 = tested on: Proteus 371
Proteus 20523 = tested on: Proteus 20523
Proteus 20522 = tested on: Proteus 20522
Pr. mirabilis 25942 = tested on: Pr. mirabilis 25942
Pr. mirabilis 5887 = tested on: Pr. mirabilis 5887
Proteus 20531 = tested on: Proteus 20531

SMILES	Antibiotic Sensitivity (Pr. rettgeri 7475)	Antibiotic Sensitivity (Coliform 608)	Antibiotic Sensitivity (Staph. pyogenes)	Antibiotic Sensitivity (E. coli 9395)	Antibiotic Sensitivity (Coliform 578)	Antibiotic Sensitivity (Strep. faecalia 559)	Antibiotic Sensitivity (Kleb. aerogenes 22352)	Antibiotic Sensitivity (E. coli 559)	Antibiotic Sensitivity (Staph. aureus 20477)	Antibiotic Sensitivity (E. coli 566)	Antibiotic Sensitivity (Staph. albus 474)	Antibiotic Sensitivity (Staph. albus 473)	Antibiotic Sensitivity (Pr. vulgaris 4635)	Antibiotic Sensitivity (E. coli 026)	Antibiotic Sensitivity (Staph. aureus 590)	Antibiotic Sensitivity (Ps. aeruginosa 1999)	Antibiotic Sensitivity (Strep. faecalis 20190)	Antibiotic Sensitivity (Staph. albus 479)	Antibiotic Sensitivity (Kleb, acrogenes 8172)	Antibiotic Sensitivity (Candida albicans)	other results
CN(C)[C@@H]1C(=O)C(C(N)=O)=C(O)[C@@]2(O)C(=O)C3=C(O)c4c(O)cccc4[C@@](C)(O)[C@H]3C[C@@H]12 [Tetracycline, tetracycline]	S	S	R	S	S	R	S	S	R	S	R	R	S	R	R	S	R	R	S	R	Antibiotic Sensitivity (Ps. multivorans BS): S; Antibiotic Sensitivity (Pr. miribilis 25702): S; Antibiotic Sensitivity (Ps. multivorans MB): S; Antibiotic Sensitivity (Staph. aureus 7447): S; Antibiotic Sensitivity (E. coli 604): S; Antibiotic Sensitivity (Coliform 518): S; Antibiotic Sensitivity (Serratia marcescens): S; Antibiotic Sensitivity (Ps. aeruginosa 5267): S; Antibiotic Sensitivity (Staph. albus 476): R
Oc1ccc(Cl)c2cccnc12 [CHQ, 5-chloro-8-hydroxyquinoline]	S	S	S	S	S	S	S	S	S	S	S	S	S	S	S	R	S	S	S	S	Antibiotic Sensitivity (Proteus 20029): S; Antibiotic Sensitivity (Proteus 371): S; Antibiotic Sensitivity (Proteus 20523): S; Antibiotic Sensitivity (Proteus 20522): S; Antibiotic Sensitivity (Ps. multivorans BS): S; Antibiotic Sensitivity (Pr. miribilis 25702): S; Antibiotic Sensitivity (Pr. mirabilis 25942): S; Antibiotic Sensitivity (Ps. multivorans MB): S; Antibiotic Sensitivity (Staph. aureus 7447): S; Antibiotic Sensitivity (E. coli 604): S; Antibiotic Sensitivity (Pr. mirabilis 5887): S; Antibiotic Sensitivity (Coliform 518): S; Antibiotic Sensitivity (Serratia marcescens): S; Antibiotic Sensitivity (Ps. aeruginosa 5267): R; Antibiotic Sensitivity (Proteus 20531): S; Antibiotic Sensitivity (Staph. albus 476): S
